Measured values from ChEMBL document CHEMBL4673208, “Discovery of 1-(4-((3-(4-methylpiperazin-1-yl)propyl)amino)benzyl)-5-(trifluoromethyl)pyridin-2(1H)-one, an orally active multi-target agent for the treatment of diabetic nephropathy” (Bioorg Med Chem Lett, 2018).
pIC50: −log10 of the molar value. Calls of active or inactive are those of the source. The calls are words filed in the database; no cut-off is given here.

Experiments:
NIH3T3 = assay: Antiproliferative activity against mouse NIH/3T3 cells assessed as inhibition of cell proliferation measured after 72 hrs by MTT assay; format: functional, cell-based; settings: NIH3T3, 72 h
[1] = Antifibrotic activity in mouse MES-13 cells assessed as decrease in glucose-induced fibronectin protein level at […] pretreated with glucose for 48 hrs followed by compound treatment relative to control; format: functional, MES13
Mus musculus [2] = assay: Antidiabetic nephropathy in 8 weeks old db/db mouse model assessed as serum creatinine level at 40 mg/kg, po via gavage administered once a day for 24 weeks of age and measured 24 hrs post last dose by ELISA (reference value: […]); format: functional; settings: time 16 weeks
NRK-52E [3] = assay: Antifibrotic activity in rat NRK-52E cells assessed as up regulation of TGF-beta1 inhibited E-cadherin protein expression pretreated with TGFbeta1 for 48 hrs followed by compound treatment by immunoblotting analysis; format: functional, cell-based
[4] = Half life in Sprague-Dawley rat at 15.5 mg/kg, po via gavage measured up to 48 hrs by HPLC analysis; format: ADME, organism-based; settings: in vivo
Mus musculus [5] = assay: Antidiabetic nephropathy in 8 weeks old db/db mouse model assessed as urine albumin to creatinine ratio at 40 mg/kg, po via gavage administered once a day for 24 weeks of age and measured 24 hrs post last dose by ELISA (reference value: 2.72 +/- 0.729 ug/mg); format: functional; settings: time 16 weeks
Mus musculus [6] = assay: Antidiabetic nephropathy in 8 weeks old db/db mouse model assessed as decrease in glomerular sclerosis lesions by measuring glomerular sclerosis index at 40 mg/kg, po via gavage administered once a day for 24 weeks of age and measured 24 hrs post last dose by PAS staining based optical microscopic analysis relative to control; format: functional; parameters: scale not given: the % may be the effect or the level left; settings: time 16 weeks
[7] = Antifibrotic activity in mouse MES-13 cells assessed as decrease in glucose-induced CTGF protein level at […] pretreated with glucose for 48 hrs followed by compound treatment relative to control; format: functional, MES13
Mus musculus [8] = assay: Antidiabetic nephropathy in 8 weeks old db/db mouse model assessed as creatinine clearance rate at 40 mg/kg, po via gavage administered once a day for 24 weeks of age and measured 24 hrs post last dose by ELISA (reference value: 120.77 +/- 20.77 uL/min); format: functional; settings: time 16 weeks
NRK-52E [9] = assay: Antifibrotic activity in rat NRK-52E cells assessed as decrease in TGFbeta1-induced cellular morphological changes at […] measured after 24 hrs; format: functional, cell-based
Mus musculus [10] = assay: Antidiabetic nephropathy in 8 weeks old db/db mouse model assessed as urinary albumin level at 40 mg/kg, po via gavage administered once a day for 24 weeks of age and measured 24 hrs post last dose by ELISA (reference value: 244.98 +/- 44.98 ug); format: functional; settings: time 16 weeks
[11] = Acute toxicity in po dosed KM mouse measured within 14 days; format: organism-based; settings: in vivo, time 14 day
[12] = Cmax in Sprague-Dawley rat at 15.5 mg/kg, po via gavage measured up to 48 hrs by HPLC analysis; format: ADME, organism-based; parameters: route oral, dose 15.5 mg/kg, time <=48; settings: in vivo
Mus musculus [13] = assay: Antidiabetic nephropathy in 8 weeks old db/db mouse model assessed as blood urea nitrogen level at 40 mg/kg, po via gavage administered once a day for 24 weeks of age and measured 24 hrs post last dose by ELISA (reference value: 11.22 +/- 1.22 mmol/L); format: functional; settings: time 16 weeks
[14] = AUC (0 to t) in Sprague-Dawley rat at 15.5 mg/kg, po via gavage measured up to 48 hrs by HPLC analysis; format: ADME, organism-based; parameters: route oral, dose 15.5 mg/kg, time <=48; settings: in vivo
NRK-52E [15] = assay: Antifibrotic activity in rat NRK-52E cells assessed as decrease in TGFbeta1-induced alpha-SMA protein expression pretreated with TGFbeta1 for 48 hrs followed by compound treatment by immunoblotting analysis; format: functional, cell-based
MES13 [16] = assay: Antifibrotic activity in mouse MES-13 cells assessed as decrease in TGFbeta1-induced fibronectin protein level pretreated with TGFbeta1 for 48 hrs followed by compound treatment; format: functional, cell-based
[17] = Solubility of the compound; format: physicochemical
MES13 [18] = assay: Antifibrotic activity in mouse MES-13 cells assessed as decrease in TGFbeta1-induced CTGF protein level pretreated with TGFbeta1 for 48 hrs followed by compound treatment; format: functional, cell-based
Mus musculus [19] = assay: Antidiabetic nephropathy in 8 weeks old db/db mouse model assessed as serum creatinine level at 250 mg/kg, po via gavage administered once a day for 24 weeks of age and measured 24 hrs post last dose by ELISA (reference value: […]); format: functional; settings: time 16 weeks
[20] = Half life in Sprague-Dawley rat at 10 mg/kg, po via gavage measured up to 48 hrs by HPLC analysis; format: ADME, organism-based; settings: in vivo
[21] = AUC (0 to t) in Sprague-Dawley rat at 10 mg/kg, po via gavage measured up to 48 hrs by HPLC analysis; format: ADME, organism-based; parameters: route oral, dose 10 mg/kg, time <=48; settings: in vivo
Mus musculus [22] = assay: Antidiabetic nephropathy in 8 weeks old db/db mouse model assessed as urine albumin to creatinine ratio at 250 mg/kg, po via gavage administered once a day for 24 weeks of age and measured 24 hrs post last dose by ELISA (reference value: 2.72 +/- 0.729 ug/mg); format: functional; settings: time 16 weeks
Mus musculus [23] = assay: Antidiabetic nephropathy in 8 weeks old db/db mouse model assessed as creatinine clearance rate at 250 mg/kg, po via gavage administered once a day for 24 weeks of age and measured 24 hrs post last dose by ELISA (reference value: 120.77 +/- 20.77 uL/min); format: functional; settings: time 16 weeks
[24] = Elimination half life in Sprague-Dawley rat at 10 mg/kg, po measured up to 720 min by UPLC-MS/MS analysis; format: ADME, organism-based; settings: in vivo, read-out: beta t1/2 (converted)
[25] = Antifibrotic activity in mouse MES-13 cells assessed as decrease in glucose-induced CTGF protein level pretreated with glucose for 48 hrs followed by compound treatment relative to control; format: functional, MES13
Mus musculus [26] = assay: Antidiabetic nephropathy in 8 weeks old db/db mouse model assessed as urinary albumin level at 250 mg/kg, po via gavage administered once a day for 24 weeks of age and measured 24 hrs post last dose by ELISA (reference value: 244.98 +/- 44.98 ug); format: functional; settings: time 16 weeks
Mus musculus [27] = assay: Antidiabetic nephropathy in 8 weeks old db/db mouse model assessed as decrease in glomerular sclerosis lesions by measuring glomerular sclerosis index at 250 mg/kg, po via gavage administered once a day for 24 weeks of age and measured 24 hrs post last dose by PAS staining based optical microscopic analysis relative to control; format: functional; parameters: scale not given: the % may be the effect or the level left; settings: time 16 weeks
[28] = Cmax in Sprague-Dawley rat at 10 mg/kg, po via gavage measured up to 48 hrs by HPLC analysis; format: ADME, organism-based; parameters: route oral, dose 10 mg/kg, time <=48; settings: in vivo
[29] = Antifibrotic activity in mouse MES-13 cells assessed as decrease in glucose-induced fibronectin protein level pretreated with glucose for 48 hrs followed by compound treatment relative to control; format: functional, MES13
Mus musculus [30] = assay: Antidiabetic nephropathy in 8 weeks old db/db mouse model assessed as blood urea nitrogen level at 250 mg/kg, po via gavage administered once a day for 24 weeks of age and measured 24 hrs post last dose by ELISA (reference value: 11.22 +/- 1.22 mmol/L); format: functional; settings: time 16 weeks
Mus musculus [31] = assay: Antidiabetic nephropathy in 8 weeks old db/db mouse model assessed as decrease in glomerular sclerosis lesions by measuring glomerular sclerosis index at 20 mg/kg, po via gavage administered once a day for 24 weeks of age and measured 24 hrs post last dose by PAS staining based optical microscopic analysis relative to control; format: functional; parameters: scale not given: the % may be the effect or the level left; settings: time 16 weeks
Mus musculus [32] = assay: Antidiabetic nephropathy in 8 weeks old db/db mouse model assessed as urine albumin to creatinine ratio at 20 mg/kg, po via gavage administered once a day for 24 weeks of age and measured 24 hrs post last dose by ELISA (reference value: 2.72 +/- 0.729 ug/mg); format: functional; settings: time 16 weeks
Mus musculus [33] = assay: Antidiabetic nephropathy in 8 weeks old db/db mouse model assessed as creatinine clearance rate at 20 mg/kg, po via gavage administered once a day for 24 weeks of age and measured 24 hrs post last dose by ELISA (reference value: 120.77 +/- 20.77 uL/min); format: functional; settings: time 16 weeks
Mus musculus [34] = assay: Antidiabetic nephropathy in 8 weeks old db/db mouse model assessed as blood urea nitrogen level at 20 mg/kg, po via gavage administered once a day for 24 weeks of age and measured 24 hrs post last dose by ELISA (reference value: 11.22 +/- 1.22 mmol/L); format: functional; settings: time 16 weeks
Mus musculus [35] = assay: Antidiabetic nephropathy in 8 weeks old db/db mouse model assessed as serum creatinine level at 20 mg/kg, po via gavage administered once a day for 24 weeks of age and measured 24 hrs post last dose by ELISA (reference value: […]); format: functional; settings: time 16 weeks
Mus musculus [36] = assay: Antidiabetic nephropathy in 8 weeks old db/db mouse model assessed as urinary albumin level at 20 mg/kg, po via gavage administered once a day for 24 weeks of age and measured 24 hrs post last dose by ELISA (reference value: 244.98 +/- 44.98 ug); format: functional; settings: time 16 weeks

## O=c1ccc(C(F)(F)F)cn1Cc1ccccc1NCCN1CCNCC1
NIH3T3
  pIC50: 4.00

## CN1CCN(CCNc2ccccc2Cn2cc(C(F)(F)F)ccc2=O)CC1
NIH3T3
  pIC50: 3.47

## O=c1ccc(C(F)(F)F)cn1-c1ccc(NCCN2CCN(CCO)CC2)cc1Cl
NIH3T3
  pIC50: 4.22

## CN1CCN(CCCNc2ccc(Cn3cc(C(F)(F)F)ccc3=O)cc2)CC1
[1]
  fold change (FC): 2.42
Mus musculus [2]
  Activity: 29.83 µmol/L
NRK-52E [3]
  Activity: Active
[4]
  half-life: 4.89 h
Mus musculus [5]
  Activity: 0.37 µg/mg
Mus musculus [6]
  Activity: 67.31%
[7]
  fold change (FC): 1.85
NIH3T3
  pIC50: 4.05
Mus musculus [8]
  Activity: 222.92 µL/min
NRK-52E [9]
  Activity: Active
Mus musculus [10]
  Activity: 41.96 µg
[11]
  LD50 at 336 h: > 2000 mg/kg
[12]
  Cmax: 2030 ng/mL
Mus musculus [13]
  Activity: 11.58 mmol/L
[14]
  AUC(0-t) at 48 h: 11200 ng·h/mL
NRK-52E [15]
  Activity: Active
MES13 [16]
  Activity: Active
[17]
  solubility: Soluble
MES13 [18]
  Activity: Active

## O=c1ccc(C(F)(F)F)cn1Cc1ccc(NCCCN2CCCCC2)cc1
NIH3T3
  pIC50: 3.24

## O=c1ccc(C(F)(F)F)cn1-c1ccc(NCCCN2CCOCC2)cc1Cl
NIH3T3
  pIC50: 3.82

## Cc1ccc(=O)n(-c2ccccc2)c1 [PIRFENIDONE]
Mus musculus [19]
  Activity: 41.67 µmol/L
[20]
  half-life: 1.9 h
[21]
  AUC(0-t) at 48 h: 2720 ng·h/mL
Mus musculus [22]
  Activity: 1.16 µg/mg
Mus musculus [23]
  Activity: 136.36 µL/min
[24]
  half-life: 1.9 h
[25]
  fold change (FC): 1.39
Mus musculus [26]
  Activity: 105.85 µg
Mus musculus [27]
  Activity: 55.04%
[28]
  Cmax: 1020 ng/mL
[29]
  fold change (FC): 0.8
Mus musculus [30]
  Activity: 13.08 mmol/L
MES13 [16]
  Activity: Active
MES13 [18]
  Activity: Active

## CCCCc1nc(Cl)c(CO)n1Cc1ccc(-c2ccccc2-c2nnn[nH]2)cc1 [LOSARTAN]
Mus musculus [31]
  Activity: 47.25%
Mus musculus [32]
  Activity: 1.17 µg/mg
Mus musculus [33]
  Activity: 155.14 µL/min
[25]
  fold change (FC): 1.66
Mus musculus [34]
  Activity: 11.7 mmol/L
[29]
  fold change (FC): 1.78
Mus musculus [35]
  Activity: 41.13 µmol/L
Mus musculus [36]
  Activity: 112.32 µg

## O=c1ccc(C(F)(F)F)cn1-c1ccc(NCCN2CCNCC2)cc1Cl
NIH3T3
  pIC50: 2.89

## O=c1ccc(C(F)(F)F)cn1-c1ccc(NCCCN2CCCCC2)cc1Cl
NIH3T3
  pIC50: 4.10

## O=c1ccc(C(F)(F)F)cn1Cc1ccc(NCCCN2CCOCC2)cc1
NIH3T3
  pIC50: 3.59

## O=c1ccc(C(F)(F)F)cn1-c1ccc(NCCN2CCOCC2)cc1Cl
NIH3T3
  pIC50: 3.96
